Source: patent US20050282755A1, “Compositions having antimicrobial activity and uses thereof” (priority 2004, published 2005)
In brackets after ≈: the same amount, converted by molar mass. Where two headings read alike, the source gives them in different places. Non-standard residues stand in square brackets, D forms with d. Residues, ends and D or L forms follow the SMILES beside them. *: point of attachment. Lauroyl = CCCCCCCCCCCC(=O)*; Decanoyl = CCCCCCCCCC(=O)*; Octanoyl = CCCCCCCC(=O)*

What was measured:
Type in all cases: cell-based
Salmonella dublin (Lane) = experiment: MIC, NCCLS M7-A6 broth microdilution (Table 9, no superscript)
Method in brief: (§1)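 Broth microdilution in cation-adjusted Mueller Hinton broth with log-phase inoculum at 5×10^5 to 1×10^6 CFU/mL, incubated overnight at 37° C. MIC was the lowest peptide concentration showing no visible turbidity versus the no-peptide control.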

[1] = tested on: Propionibacterium acnes ATCC 6919
Protocol: A second method that was used to determine the MIC in P. acnes for selected antimicrobial agents was a non-standard broth microdilution method that used an assay buffer composed of reinforced Clostridial broth. Briefly, a log-phase bacterial culture of P. acnes was used to inoculate wells of a 96-well plate so that the final inoculum for each well contained 5×10^5 to 1×10^6 CFU/milliliter. […] Plates were incubated for 48-72 hours at 37° C. in a GasPak anaerobic chamber. The lowest concentration of peptide that contained no visible growth as evidenced by a lack of turbidity when compared to the control (no peptide) was determined as the MIC. MIC values that utilized this method of MIC determination are indicated in Table 9 with a subscript letter “d.”

[2] = tested on: Staphylococcus aureus ATCC 29213; experiment: MIC, NCCLS M7-A6 broth microdilution, cation-adjusted Mueller Hinton broth (Table 9, no superscript); details: ATCC 29213
Method in brief: as §1

[3] = tested on: Candida albicans ATCC 18804; experiment: MIC in yeasts, NCCLS M27-A2 broth microdilution, RPMI 1640 (Table 9, letter e); details: ATCC 18804
Method in brief: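 Plates incubated 24 to 48 hours at 37° C, with yeast seeded at 0.5×10^3–2.5×10^3 CFU/milliliter final in RPMI 1640 (glutamine, phenol red indicator). MIC was read as the lowest peptide concentration showing no visible growth.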

[4] = tested on: Pseudomonas aeruginosa ATCC 27853; experiment: MIC, NCCLS M7-A6 broth microdilution (Table 9, no superscript); details: ATCC 27853
Method in brief: as §1

[5] = tested on: Staphylococcus epidermidis ATCC 12228; experiment: as above; details: ATCC 12228
Method in brief: as §1

[6] = tested on: Escherichia coli ATCC 25922; experiment: as above; details: ATCC 25922
Method in brief: as §1

[7] = tested on: Propionibacterium acnes ATCC 6919; experiment: MIC, agar dilution method NCCLS M11-A6, Brucella agar, anaerobic (Table 9, superscript c); details: ATCC 6919
Method in brief: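 MIC taken as the lowest peptide level giving no colonies on the plate. Plates were inoculated to 1.5×10^8 CFU/milliliter, then kept anaerobically at 37° C. for 48-96 hours; method follows NCCLS M11-A6.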

Compound | MIC S. dublin (Salmonella dublin (Lane)) [µg/mL] | MIC P. acnes [1] [µg·days/mL] | MIC S. aureus [2] [µg/mL] | MIC C. albicans [3] [e ug/mL] | MIC P. aeruginosa [4] [µg/mL] | MIC S. epidermidis [5] [µg/mL] | MIC E. coli [6] [µg/mL] | MIC P. acnes [7] [c ug/mL]
CSCC[C@@H](NC(=O)[C@@H](Cc1ccccc1)NC(=O)[C@@H](CC(N)=O)NC(=O)[C@@H](CCCNC(=N)N)NC(=O)[C@@H](CO)NC(=O)[C@@H](Cc1c[nH]c2ccccc12)NC(=O)[C@@H](CC(=O)O)NC(=O)[C@@H](CCCNC(=N)N)NC(=O)[C@@H](Cc1c[nH]c2ccccc12)NC(=O)[C@@H](CCCNC(=N)N)NC(=O)[C@@H](CO)NC(=O)[C@@H](CCCNC(=N)N)NC(=O)CNC(=O)[C@H](NC(=O)[C@@H](CCCNC(=N)N)NC(=O)[C@@H](CO)NC(=O)[C@H](NC(=O)[C@@H](CCCNC(=N)N)NC(=O)[C@H](NC(C)=O)[C@H](C)O)C(C)C)[C@H](C)O)C(=O)N[C@H](CCCNC(=N)N)C(=O)N[C@H](CCCCN)C(=O)N[C@H](CCCCN)C(=O)N[C@H](CCCCN)C(=O)N[C@H](CCCCN)C(=O)N[C@H](CCCCN)C(=O)N[C@H](CCCCN)C(=O)N[C@H](CCCCN)C(=O)N[C@H](CCCCN)C(N)=O [Peptide 34, Ac-trvsrtgrsrwrdwsrnfmrkkkkkkkk-NH2] (Ac-[dT][dR][dV][dS][dR][dT]G[dR][dS][dR][dW][dR][dD][dW][dS][dR][dN][dF][dM][dR][dK][dK][dK][dK][dK][dK][dK][dK]-NH2) | >64 | 6 | >64 |  |  |  |  | 
CSCC[C@H](NC(=O)[C@H](Cc1ccccc1)NC(=O)[C@H](CC(N)=O)NC(=O)[C@H](CCCNC(=N)N)NC(=O)[C@H](C)NC(=O)[C@@H](NC(=O)[C@H](CC(=O)O)NC(=O)[C@H](CCCNC(=N)N)NC(=O)[C@H](Cc1c[nH]c2ccccc12)NC(=O)[C@H](CCCNC(=N)N)NC(=O)[C@H](CO)NC(=O)[C@H](CCCNC(=N)N)NC(=O)CNC(=O)[C@@H](NC(=O)[C@H](CCCNC(=N)N)NC(=O)[C@H](C)NC(=O)[C@@H](NC(=O)[C@H](CCCNC(=N)N)NC(=O)[C@@H](NC(C)=O)[C@@H](C)O)C(C)C)[C@@H](C)O)C(C)C)C(=O)N[C@@H](CCCNC(=N)N)C(N)=O [Peptide 38] (Ac-TRVARTGRSRWRDVARNFMR-NH2) | >64 | 25 | >64 | 16 |  |  |  | 
CC(=O)N[C@@H](C(=O)N[C@H](CCCNC(=N)N)C(=O)N[C@@H](C(=O)N[C@H](CO)C(=O)N[C@H](CCCNC(=N)N)C(=O)N[C@@H](C(=O)NCC(=O)N[C@H](CCCNC(=N)N)C(=O)N[C@H](CO)C(=O)N[C@H](CCCNC(=N)N)C(=O)N[C@H](Cc1c[nH]c2ccccc12)C(=O)N[C@H](CCCNC(=N)N)C(=O)N[C@H](CC(=O)O)C(=O)N[C@H](Cc1c[nH]c2ccccc12)C(=O)N[C@H](CO)C(=O)N[C@H](CCCNC(=N)N)C(=O)N[C@H](CC(N)=O)C(=O)N[C@H](Cc1ccccc1)C(=O)N[C@H](C)C(=O)N[C@H](CCCNC(=N)N)C(N)=O)[C@H](C)O)C(C)C)[C@H](C)O [Peptide 61, Ac-trvsrtgrsrwrdwsrnfar-NH2] (Ac-[dT][dR][dV][dS][dR][dT]G[dR][dS][dR][dW][dR][dD][dW][dS][dR][dN][dF][dA][dR]-NH2) | >64 | 12.5 | >64 |  |  |  |  | 
CCCCCCCCCCCC(=O)N[C@H](C(=O)N[C@@H](CCCNC(=N)N)C(=O)N[C@H](C(=O)N[C@@H](C)C(=O)N[C@@H](CCCNC(=N)N)C(=O)N[C@H](C(=O)NCC(=O)N[C@@H](CCCNC(=N)N)C(=O)N[C@@H](CO)C(=O)N[C@@H](CCCNC(=N)N)C(=O)N[C@@H](Cc1c[nH]c2ccccc12)C(=O)N[C@@H](CCCNC(=N)N)C(=O)N[C@@H](CC(=O)O)C(=O)N[C@H](C(=O)N[C@@H](C)C(=O)N[C@@H](CCCNC(=N)N)C(=O)N[C@@H](CC(N)=O)C(=O)N[C@@H](Cc1ccccc1)C(=O)N[C@@H](CCSC)C(=O)N[C@@H](CCCNC(=N)N)C(N)=O)C(C)C)[C@@H](C)O)C(C)C)[C@@H](C)O [Peptide 69] (Lauroyl-TRVARTGRSRWRDVARNFMR-NH2) | 16 (≈ 5.99 µM) | 12.5 | 4 (≈ 1.5 µM) | 16 |  |  |  | 
CCCCCCCCCCCC(=O)N[C@@H](C(=O)N[C@H](CCCNC(=N)N)C(=O)N[C@@H](C(=O)N[C@H](C)C(=O)N[C@H](CCCNC(=N)N)C(=O)N[C@@H](C(=O)NCC(=O)N[C@H](CCCNC(=N)N)C(=O)N[C@H](CO)C(=O)N[C@H](CCCNC(=N)N)C(=O)N[C@H](Cc1c[nH]c2ccccc12)C(=O)N[C@H](CCCNC(=N)N)C(=O)N[C@H](CC(=O)O)C(=O)N[C@H](Cc1c[nH]c2ccccc12)C(=O)N[C@H](C)C(=O)N[C@H](CCCNC(=N)N)C(=O)N[C@H](CC(N)=O)C(=O)N[C@H](Cc1ccccc1)C(=O)N[C@H](CCSC)C(=O)N[C@H](CCCNC(=N)N)C(N)=O)[C@H](C)O)C(C)C)[C@H](C)O [Peptide 77, Lauryl-trvartgrsrwrdwarnfmr-NH2] (Lauroyl-[dT][dR][dV][dA][dR][dT]G[dR][dS][dR][dW][dR][dD][dW][dA][dR][dN][dF][dM][dR]-NH2) | 16 (≈ 5.8 µM) | 12.5 | 16 (≈ 5.8 µM) | 8 |  |  |  | 
CCCCCCCCCCCC(=O)N[C@H](CCCNC(=N)N)C(=O)N[C@H](CO)C(=O)N[C@H](CCCNC(=N)N)C(=O)N[C@H](Cc1c[nH]c2ccccc12)C(=O)N[C@H](CCCNC(=N)N)C(=O)N[C@H](CC(=O)O)C(=O)N[C@H](Cc1c[nH]c2ccccc12)C(=O)N[C@H](CO)C(=O)N[C@H](CCCNC(=N)N)C(=O)N[C@H](CC(N)=O)C(=O)N[C@H](Cc1ccccc1)C(=O)N[C@H](CCSC)C(=O)N[C@H](CCCNC(=N)N)C(N)=O [Peptide 89, Lauryl-rsrwrdwsrnfmr-NH2] (Lauroyl-[dR][dS][dR][dW][dR][dD][dW][dS][dR][dN][dF][dM][dR]-NH2) | 4 (≈ 1.97 µM) | 25 | 4 (≈ 1.97 µM) | 32 |  |  |  | 
CSCC[C@H](NC(=O)[C@H](Cc1ccccc1)NC(=O)[C@H](CC(N)=O)NC(=O)[C@H](CCCNC(=N)N)NC(=O)[C@H](CO)NC(=O)[C@H](Cc1c[nH]c2ccccc12)NC(=O)[C@H](CC(=O)O)NC(=O)[C@H](CCCNC(=N)N)NC(=O)[C@H](Cc1c[nH]c2ccccc12)NC(=O)[C@H](CCCNC(=N)N)NC(=O)[C@H](CO)NC(=O)[C@H](CCCNC(=N)N)NC(C)=O)C(=O)N[C@@H](CCCNC(=N)N)C(N)=O [Peptide 91, Ac-RSRWRDWSRNFMR-NH2] (Ac-RSRWRDWSRNFMR-NH2) | >64 | 25 | >64 | 16 |  |  |  | 
CSCC[C@H](NC(=O)[C@H](Cc1ccccc1)NC(=O)[C@H](CC(N)=O)NC(=O)[C@H](CCCNC(=N)N)NC(=O)[C@H](C)NC(=O)[C@@H](NC(=O)[C@H](CC(=O)O)NC(=O)[C@H](CCCNC(=N)N)NC(=O)[C@H](Cc1c[nH]c2ccccc12)NC(=O)[C@H](CCCNC(=N)N)NC(=O)[C@H](CO)NC(=O)[C@H](CCCNC(=N)N)NC(C)=O)C(C)C)C(=O)N[C@@H](CCCNC(=N)N)C(N)=O [Peptide 92, Ac-RSRWRDVARNFMR-NH2] (Ac-RSRWRDVARNFMR-NH2) | >64 | 25 | >64 | 8 |  |  |  | 
CCCCCCCC(=O)N[C@H](CCCNC(=N)N)C(=O)N[C@H](CO)C(=O)N[C@H](CCCNC(=N)N)C(=O)N[C@H](Cc1c[nH]c2ccccc12)C(=O)N[C@H](CCCNC(=N)N)C(=O)N[C@H](CC(=O)O)C(=O)N[C@@H](C(=O)N[C@H](C)C(=O)N[C@H](CCCNC(=N)N)C(=O)N[C@H](CC(N)=O)C(=O)N[C@H](Cc1ccccc1)C(=O)N[C@H](CC(C)C)C(=O)N[C@H](CCCNC(=N)N)C(N)=O)C(C)C [Peptide 252, Octyl-rsrwrdvarnflr-NH2] (Octanoyl-[dR][dS][dR][dW][dR][dD][dV][dA][dR][dN][dF][dL][dR]-NH2) | 64 (≈ 34.5 µM) |  | 16 (≈ 8.62 µM) | 64 | 16 (≈ 8.62 µM) | 2 (≈ 1.08 µM) | 16 (≈ 8.62 µM) | 16
CCCCCCCCCC(=O)N[C@H](CCCNC(=N)N)C(=O)N[C@H](CO)C(=O)N[C@H](CCCNC(=N)N)C(=O)N[C@H](Cc1c[nH]c2ccccc12)C(=O)N[C@H](CCCNC(=N)N)C(=O)N[C@H](CC(=O)O)C(=O)N[C@@H](C(=O)N[C@H](C)C(=O)N[C@H](CCCNC(=N)N)C(=O)N[C@H](CC(N)=O)C(=O)N[C@H](Cc1ccccc1)C(=O)N[C@H](CC(C)C)C(=O)N[C@H](CCCNC(=N)N)C(N)=O)C(C)C [Peptide 253, Decanyl-rsrwrdvarnflr-NH2] (Decanoyl-[dR][dS][dR][dW][dR][dD][dV][dA][dR][dN][dF][dL][dR]-NH2) | 8 (≈ 4.24 µM) |  | 2 (≈ 1.06 µM) | 16 | 4 (≈ 2.12 µM) | 1 (≈ 0.53 µM) | 2 (≈ 1.06 µM) | 2
